Measurements taken from patent US7709634B2, “Amorphous form of rifaximin and processes for its preparation” (Apotex PharmAchem Inc., priority 2007, dated 2010).

Assay: Polymorphic stability on exposure to ambient humidity, checked by PXRD
Assay type: physicochemical
Conditions: exposure to ambient humidity for a period of 10 days
Excerpt: High yield of amorphous form of rifaximin is isolated by the processes of the present invention and it has high chemical purity and retains acceptable amounts of residual solvents.

polymorphic form after exposure to ambient humidity, as indicated by PXRD spectroscopy: did not change the polymorphic form
Structure (SMILES): CO[C@H]1/C=C/O[C@@]2(C)Oc3c(C)c(O)c4c(O)c(c5c(nc6cc(C)ccn65)c4c3C2=O)NC(=O)/C(C)=C\C=C\[C@H](C)[C@H](O)[C@@H](C)[C@@H](O)[C@@H](C)[C@H](OC(C)=O)[C@@H]1C [amorphous form of rifaximin, (2S,16Z,18E,20S,21S,22R,23R,24R,25S,26S,27S,28E)-5,6,21,23,25-pentahydroxy-27-methoxy-2,4,11,16,20,22,24,26-octamethyl-2,7-(epoxypentadeca-[1,11,13]trienimino)benzofuro[4,5-e]pyrido[1,2-α]-benzimidazole-1,15(2H)-dione,25-acetate]
